34 molecules from ChEMBL document CHEMBL1146045, “Design of novel, potent, and selective human beta-tryptase inhibitors based on alpha-keto-[1,2,4]-oxadiazoles” (Bioorg Med Chem Lett, 2006) can be followed below.

In one data set the target is Tryptase beta-1 (Homo sapiens, UniProt Q15661). As to the kind of experiment: Inhibition of human beta tryptase.
The target of a further data set is Trypsin (Homo sapiens, UniProt P07477+P07478+P35030). As to the kind of experiment: Inhibition of human trypsin. It is filed as protein assay.
Data set [1] in a line: Solubility at pH 7.4. It is filed as physicochemical. Conditions: buffer.
Data set [2] has as its target T1, hERG (KCNH2) (Homo sapiens, UniProt Q12809). As to the kind of experiment: Inhibition of hERG at 1 uM. In kind it is toxicity. On the technique in general: hERG is a cardiac potassium channel; its block is linked to QT prolongation.
Data set [3] is described as follows: Stability in human liver microsome after 1 hr. It is filed as ADME. Conditions: liver microsomes, read-out: Stability. Background: Microsomes from liver hold many membrane-bound enzymes, among them those of drug oxidation.
In data set [4] the target is T1, hERG (KCNH2). Put plainly: Inhibition of hERG at 10 uM. It is filed as toxicity.
A further data set deals with Prothrombin (Homo sapiens, UniProt P00734). Put plainly: Inhibition of thrombin.
In a further data set the target is T2, Coagulation factor VII (Homo sapiens, UniProt P08709).
T2 sequence (P08709 whole entry): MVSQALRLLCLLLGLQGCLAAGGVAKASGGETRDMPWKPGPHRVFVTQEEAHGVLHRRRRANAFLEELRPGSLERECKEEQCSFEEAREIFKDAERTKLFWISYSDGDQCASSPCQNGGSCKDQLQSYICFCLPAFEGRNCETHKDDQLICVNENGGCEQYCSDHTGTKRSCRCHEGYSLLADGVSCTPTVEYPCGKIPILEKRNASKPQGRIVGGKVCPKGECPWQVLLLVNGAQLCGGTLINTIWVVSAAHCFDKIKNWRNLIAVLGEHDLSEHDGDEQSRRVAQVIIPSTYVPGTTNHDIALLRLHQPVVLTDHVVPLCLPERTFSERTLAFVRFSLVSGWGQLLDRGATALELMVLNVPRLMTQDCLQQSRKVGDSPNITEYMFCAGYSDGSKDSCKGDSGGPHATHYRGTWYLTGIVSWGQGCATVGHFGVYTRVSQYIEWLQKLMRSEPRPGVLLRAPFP
Put plainly: Inhibition of F7a.

A further data set addresses Coagulation factor X (Homo sapiens, UniProt P00742). Put plainly: Inhibition of F10a.

The structures appear in SMILES notation. In brackets after ≈: the same amount, converted by molar mass.

Tryptase beta-1, sequence (Q15661 whole entry): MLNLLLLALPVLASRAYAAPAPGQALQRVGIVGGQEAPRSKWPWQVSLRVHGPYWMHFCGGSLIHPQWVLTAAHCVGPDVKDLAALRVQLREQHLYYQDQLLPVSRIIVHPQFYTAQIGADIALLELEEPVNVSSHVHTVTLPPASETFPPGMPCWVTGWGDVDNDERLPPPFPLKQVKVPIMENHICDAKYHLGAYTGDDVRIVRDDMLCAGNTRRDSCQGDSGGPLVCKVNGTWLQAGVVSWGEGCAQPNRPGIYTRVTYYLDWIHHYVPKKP
T1 sequence (Q12809 whole entry): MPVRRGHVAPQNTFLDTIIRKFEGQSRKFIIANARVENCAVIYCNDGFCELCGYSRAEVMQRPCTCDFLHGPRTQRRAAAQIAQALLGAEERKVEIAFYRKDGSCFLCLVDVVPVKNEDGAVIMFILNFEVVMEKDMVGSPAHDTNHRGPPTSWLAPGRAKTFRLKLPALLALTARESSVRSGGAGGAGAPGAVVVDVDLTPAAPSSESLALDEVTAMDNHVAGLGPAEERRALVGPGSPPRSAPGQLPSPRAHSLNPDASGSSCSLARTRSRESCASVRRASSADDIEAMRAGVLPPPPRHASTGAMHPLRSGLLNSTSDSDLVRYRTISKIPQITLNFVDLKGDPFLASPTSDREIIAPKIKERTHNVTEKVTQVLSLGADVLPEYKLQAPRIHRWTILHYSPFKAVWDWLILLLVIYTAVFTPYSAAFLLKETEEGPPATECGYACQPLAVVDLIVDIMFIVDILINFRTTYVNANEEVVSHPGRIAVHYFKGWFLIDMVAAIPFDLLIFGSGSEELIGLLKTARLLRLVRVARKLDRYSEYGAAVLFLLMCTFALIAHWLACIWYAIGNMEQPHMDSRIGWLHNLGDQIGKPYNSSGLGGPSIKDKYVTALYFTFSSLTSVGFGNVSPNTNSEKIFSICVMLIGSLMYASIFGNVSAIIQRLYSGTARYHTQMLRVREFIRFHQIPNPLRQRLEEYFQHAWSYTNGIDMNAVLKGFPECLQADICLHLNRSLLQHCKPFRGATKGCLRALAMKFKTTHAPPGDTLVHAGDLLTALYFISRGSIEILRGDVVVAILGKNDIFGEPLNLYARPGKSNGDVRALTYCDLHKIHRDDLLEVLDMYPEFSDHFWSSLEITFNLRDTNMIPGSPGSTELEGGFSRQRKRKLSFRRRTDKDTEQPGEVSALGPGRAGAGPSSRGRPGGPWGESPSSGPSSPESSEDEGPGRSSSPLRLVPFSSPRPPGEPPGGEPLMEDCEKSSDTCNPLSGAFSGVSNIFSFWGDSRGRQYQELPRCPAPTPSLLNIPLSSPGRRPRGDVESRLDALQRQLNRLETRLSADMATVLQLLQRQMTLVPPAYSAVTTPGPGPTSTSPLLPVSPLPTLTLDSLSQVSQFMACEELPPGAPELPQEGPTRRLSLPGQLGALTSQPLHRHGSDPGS
Coagulation factor X, sequence (P00742 41-179 limits assumed): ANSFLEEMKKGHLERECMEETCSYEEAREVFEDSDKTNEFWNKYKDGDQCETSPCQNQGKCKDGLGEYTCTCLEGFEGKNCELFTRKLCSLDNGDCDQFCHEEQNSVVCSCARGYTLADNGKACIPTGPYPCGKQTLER
Coagulation factor X, sequence (P00742 235-488 limits assumed): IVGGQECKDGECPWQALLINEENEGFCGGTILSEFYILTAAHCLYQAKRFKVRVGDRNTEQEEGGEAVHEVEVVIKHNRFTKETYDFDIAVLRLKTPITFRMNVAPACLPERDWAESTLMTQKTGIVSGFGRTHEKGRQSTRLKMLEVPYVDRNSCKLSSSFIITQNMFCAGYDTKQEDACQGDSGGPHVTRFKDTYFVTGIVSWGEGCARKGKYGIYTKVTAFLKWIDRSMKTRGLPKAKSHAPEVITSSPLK

As a reminder, the Ki is the equilibrium dissociation constant of an inhibitor or competing ligand from its target. Read a high Ki as a looser hold on the target. As usually defined, the solubility is the concentration that dissolves in the medium under given conditions. Read a high solubility as much dissolved substance. In the case of `NCCCC[C@H](NC(=O)OCc1ccccc1)C(=O)c1noc(Cc2ccc(C(=O)NCCc3cc(F)cc(F)c3)cc2)n1`, the Ki was 3.5 nM at Tryptase beta-1 and 18 nM on Trypsin. The solubility in data set [1] came out at 333 µM (≈ 202 µg/mL).
For the molecule `CCOC(=O)N[C@@H](CCCCN)C(=O)c1noc(Cc2ccc(C(=O)NCCc3cccc(Cl)c3)cc2)n1`, the Ki at Tryptase beta-1 was 1.9 nM; at Trypsin it was 180 nM. Besides, the concentration in solution in data set [1] (solubility) came to 471 µM (≈ 255 µg/mL).
Turning to `NCCCC[C@H](NC(=O)OCc1ccccc1)C(=O)c1noc(CN2CCN(CCCc3ccccc3)CC2)n1`, the inhibitory constant (Ki) at Tryptase beta-1 is 11 nM. This molecule yielded a solubility in data set [1] of 329 µM (≈ 181 µg/mL).
The inhibition is the percentage by which the read-out fell short of the control. For `CC(C)CCNC(=O)c1ccc(Cc2nc(C(=O)[C@H](CCCCN)NC(=O)OCc3ccccc3)no2)cc1`, the Ki was 9.9 nM on Tryptase beta-1 and 29 nM at Trypsin. For the same molecule, in data set [1], the concentration in solution (solubility) was 364 µM (≈ 195 µg/mL). Besides, the inhibition at 1 µM against hERG (KCNH2) [2] was found to be 0%.
As for `NCCCC[C@H](NC(=O)c1cc(F)cc(F)c1)C(=O)c1noc(Cc2ccc(C(=O)NCCc3cccc(Cl)c3)cc2)n1`, the results for the Ki on Tryptase beta-1 and on Trypsin were 1.5 nM and 410 nM, respectively. This molecule also displayed a solubility in data set [1] of 313 µM (≈ 191 µg/mL).
Turning to `Cc1ccc(CNC(=O)c2ccc(Cc3nc(C(=O)[C@H](CCCCN)NC(=O)OCc4ccccc4)no3)cc2)cc1C`, the Ki was determined as 39 nM on Tryptase beta-1 and 34 nM on Trypsin. In addition, the solubility in [1] amounted to 245 µM (≈ 143 µg/mL).
`NCCCC[C@H](NC(=O)OCc1ccccc1)C(=O)c1noc(Cc2ccc(C(=O)NCc3ccc4ccccc4c3)cc2)n1`: the values for the Ki on Tryptase beta-1 and on Trypsin were 11 nM and 15 nM, respectively. In data set [1], this molecule displayed a solubility of 100 µM (≈ 60.6 µg/mL).
`NCCCC[C@H](NC(=O)c1cccc(F)c1)C(=O)c1noc(Cc2ccc(C(=O)NCCc3cccc(Cl)c3)cc2)n1`: the inhibition constant Ki at Tryptase beta-1 turned out to be 1.7 nM; at Trypsin, 280 nM. Further, the solubility in [1] is 422 µM (≈ 250 µg/mL).
`NCCCC[C@H](NC(=O)OCc1ccccc1)C(=O)c1noc(CN2CCN(C(=O)CCc3ccccc3)CC2)n1`: the Ki at Tryptase beta-1 was found to be 230 nM; on Trypsin, 33 nM.
For the molecule `COc1ccc(Cc2nc(C(=O)[C@H](CCCCN)NC(=O)OCc3ccccc3)no2)cc1`, the Ki on Tryptase beta-1 stood at 770 nM; at Trypsin, 22 nM. In data set [1], this molecule yielded a solubility of 348 µM (≈ 157 µg/mL).
With `NCCCC[C@H](NC(=O)OCc1ccccc1)C(=O)c1noc(CN2CCN(C(=O)CCCc3ccccc3)CC2)n1`, the inhibitory constant (Ki) on Tryptase beta-1 is 34 nM; on Trypsin, 22 nM. The solubility in [1] was greater than 500 µM. In addition, the remaining at 1 h in data set [3] turned out to be 2%. At hERG (KCNH2) [4], this molecule displayed an inhibition at 10 µM of 2.3%.
Turning to `NCCCC[C@H](NC(=O)OCc1ccccc1)C(=O)c1noc(Cc2ccc(C(=O)NCc3cccc4ccccc34)cc2)n1`, the figures for the Ki at Tryptase beta-1 and on Trypsin were 13 nM and 26 nM, respectively. Also, the solubility in data set [1] was 77.2 µM (≈ 46.8 µg/mL).
In the case of `NCCCC[C@H](NC(=O)OCc1ccccc1)C(=O)c1noc(Cc2ccc(C(=O)NCCc3ccccc3)cc2)n1`, the Ki at Tryptase beta-1 is 3.2 nM; on Trypsin, 20 nM. Moreover, the solubility in data set [1] came out at 440 µM (≈ 251 µg/mL).
Consider `NCCCC[C@H](NC(=O)OCc1ccccc1)C(=O)c1noc(Cc2ccc(C(=O)NC3Cc4ccccc4C3)cc2)n1`, for which the Ki at Tryptase beta-1 came out at 3.7 nM; on Trypsin, 21 nM; on Prothrombin it was 48000 nM; at Coagulation factor VII it was 140000 nM; at Coagulation factor X, 100000 nM. The same molecule gave a solubility in [1] of 206 µM (≈ 120 µg/mL).
`NCCCC[C@H](NC(=O)c1ccc(F)cc1)C(=O)c1noc(Cc2ccc(C(=O)NCCc3cccc(Cl)c3)cc2)n1`: the Ki stood at 1.8 nM on Tryptase beta-1 and 240 nM on Trypsin. Also, the concentration in solution in data set [1] (solubility) came to 390 µM (≈ 231 µg/mL).
Turning to `NCCCC[C@H](NC(=O)OCc1ccccc1)C(=O)c1noc(Cc2ccc(C(=O)NCCc3cccs3)cc2)n1`, the Ki on Tryptase beta-1 was 2.4 nM; at Trypsin, 13 nM. Further, the concentration in solution in data set [1] (solubility) was 484 µM (≈ 279 µg/mL). The inhibition at 10 µM on hERG (KCNH2) [4] came to 7.2%.
For the molecule `CC(C)(C)C(=O)N[C@@H](CCCCN)C(=O)c1noc(Cc2ccc(C(=O)NCCc3cccc(Cl)c3)cc2)n1`, the Ki on Tryptase beta-1 was determined as 2 nM; on Trypsin it was 470 nM. In [1], this molecule displayed a solubility of 30 µM (≈ 16.6 µg/mL).
Regarding `NCCCC[C@H](NC(=O)OCc1ccccc1)C(=O)c1noc(Cc2ccc(C(=O)NCCCCc3ccccc3)cc2)n1`, the Ki on Tryptase beta-1 stood at 60 nM; at Trypsin it was 14 nM. In data set [1], this molecule gave a solubility of 188 µM (≈ 112 µg/mL).
Regarding `NCCCC[C@H](NC(=O)OCc1ccccc1)C(=O)c1noc(Cc2ccc(C(=O)N3CCN(Cc4ccccc4F)CC3)cc2)n1`, the figures for the Ki at Tryptase beta-1 and on Trypsin were 140 nM and 3.7 nM, respectively. The same molecule registered a solubility in data set [1] of 472 µM (≈ 303 µg/mL).
The matching figures for `NCCCC[C@H](NC(=O)OCc1ccccc1)C(=O)c1noc(Cc2ccc(C(=O)NCCOc3ccc(F)cc3)cc2)n1`: 2.9 nM, 11 nM and 299 µM (≈ 180 µg/mL).
Turning to `CCOC(=O)N[C@@H](CCCCN)C(=O)c1noc(Cc2ccc(C(=O)NC3Cc4ccccc4C3)cc2)n1`, the Ki is 170 nM at Trypsin, 60000 nM on Prothrombin, greater than 150000 nM on Coagulation factor VII and 140000 nM at Coagulation factor X. The remaining at 1 h in data set [3] was 64%.
Turning to `NCCCC[C@H](NC(=O)OCc1ccccc1)C(=O)c1noc(Cc2ccc(C(=O)NC/C=C/c3ccccc3)cc2)n1`, the Ki on Tryptase beta-1 was found to be 3.6 nM; on Trypsin it was 18 nM. The same molecule registered a solubility in data set [1] of 226 µM (≈ 131 µg/mL).
For `NCCCC[C@H](NC(=O)OCc1ccccc1)C(=O)c1noc(Cc2ccc(C(=O)NCCc3cccc(C(F)(F)F)c3)cc2)n1`, the Ki is 8.2 nM on Tryptase beta-1 and 30 nM at Trypsin. Moreover, the solubility in data set [1] was 284 µM (≈ 181 µg/mL).
Regarding `NCCCC[C@H](NC(=O)c1ccc(Cl)cc1)C(=O)c1noc(Cc2ccc(C(=O)NCCc3cccc(Cl)c3)cc2)n1`, the values for the Ki at Tryptase beta-1 and at Trypsin were 1.9 nM and 330 nM, respectively.
As to `NCCCC[C@H](NC(=O)OCc1ccccc1)C(=O)c1noc(Cc2ccc(C(=O)NCCc3cccc(Cl)c3)cc2)n1`, the Ki at Tryptase beta-1 stood at 1.8 nM; on Trypsin, 23 nM. This molecule also registered a solubility in data set [1] of 109 µM (≈ 65.8 µg/mL).
As for `NCCCC[C@H](NC(=O)OCc1ccccc1)C(=O)c1noc(CN2CCN(CCCCc3ccccc3)CC2)n1`, the inhibitory constant (Ki) on Tryptase beta-1 was found to be 5.8 nM; at Trypsin it was 12 nM. Also, the concentration in solution in data set [1] (solubility) was 466 µM (≈ 262 µg/mL). Also, the remaining at 1 h in [3] was 22%.
For `NCCCC[C@H](NC(=O)OCc1ccccc1)C(=O)c1noc(CN2CCN(C(=O)OCc3ccccc3)CC2)n1`, the Ki on Tryptase beta-1 is 470 nM; on Trypsin it was 42 nM.
Consider `NCCCC[C@H](NC(=O)OCc1ccccc1)C(=O)c1noc(Cc2ccc(C(=O)NCCc3ccc(Cl)c(Cl)c3)cc2)n1`, for which the Ki at Tryptase beta-1 is 16 nM; at Trypsin, 31 nM.
On to `NCCCC[C@H](NC(=O)c1ccc2c(c1)OCO2)C(=O)c1noc(Cc2ccc(C(=O)NCCc3cccc(Cl)c3)cc2)n1`, for which the Ki at Tryptase beta-1 was 2.1 nM; at Trypsin it was 330 nM. For the same molecule, the solubility in data set [1] was 337 µM (≈ 208 µg/mL).
Regarding `NCCCC[C@H](NC(=O)OCc1ccccc1)C(=O)c1noc(Cc2ccc(C(=O)NCCCc3ccccc3)cc2)n1`, the values for the Ki at Tryptase beta-1 and on Trypsin were 3 nM and 19 nM, respectively. In addition, in data set [1], the solubility was found to be 370 µM (≈ 216 µg/mL).
Taken in the same sequence, the figures for `NCCCC[C@H](NC(=O)c1ccc(F)c(F)c1)C(=O)c1noc(Cc2ccc(C(=O)NCCc3cccc(Cl)c3)cc2)n1` were 1.7 nM, 440 nM and 349 µM (≈ 213 µg/mL).
The matching figures for `NCCCC[C@H](NC(=O)OCc1ccccc1)C(=O)c1noc(Cc2ccc(C(=O)NCc3ccccc3)cc2)n1`: 37 nM, 23 nM and 459 µM (≈ 255 µg/mL).
As for `NCCCC[C@H](NC(=O)OCc1ccccc1)C(=O)c1noc(Cc2ccc(C(=O)NCCc3ccc(C(F)(F)F)cc3)cc2)n1`, the results for the Ki on Tryptase beta-1 and on Trypsin were 220 nM and 27 nM, respectively. In data set [1], this molecule registered a solubility of 227 µM (≈ 145 µg/mL).
`NCCCC[C@H](NC(=O)OCc1ccccc1)C(=O)c1noc(Cc2ccc(OCCc3ccccc3)cc2)n1`: the concentration in solution in data set [1] (solubility) was 23 µM (≈ 12.5 µg/mL). This molecule also yielded an inhibition at 1 µM at hERG (KCNH2) [2] of 40%.
